The target in one assay is T1, CYP4A (Homo sapiens, UniProt Q02928).
T1 construct: purchased; host or cells: bacterial membranes ('bactosome')
T1 sequence (Q02928 5-519): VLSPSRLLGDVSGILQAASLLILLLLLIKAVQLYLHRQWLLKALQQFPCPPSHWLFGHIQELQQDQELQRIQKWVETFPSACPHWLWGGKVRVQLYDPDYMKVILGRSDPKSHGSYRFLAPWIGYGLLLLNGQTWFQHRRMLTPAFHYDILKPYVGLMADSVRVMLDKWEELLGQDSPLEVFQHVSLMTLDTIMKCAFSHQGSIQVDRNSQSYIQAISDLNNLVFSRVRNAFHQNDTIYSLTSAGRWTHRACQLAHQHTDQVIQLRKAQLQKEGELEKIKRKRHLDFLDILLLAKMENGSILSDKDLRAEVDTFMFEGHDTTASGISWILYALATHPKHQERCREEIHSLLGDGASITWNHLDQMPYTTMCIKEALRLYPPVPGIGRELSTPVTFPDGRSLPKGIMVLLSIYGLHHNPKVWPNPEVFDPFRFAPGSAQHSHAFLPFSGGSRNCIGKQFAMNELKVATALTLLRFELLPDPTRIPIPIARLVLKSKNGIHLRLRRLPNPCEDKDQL
Kind of assay: CYP4A enzyme assay (luminescence, Luciferin-ME). The format is biochemical. The note with it: Compound concentration 5 μM; 50%-70%; read-out: % Inhibition 50%-70%. As for the experimental part: The CYP4A inhibitory activity of the above compounds of the examples was measured. The reagents used in the experiment were commercially available, and were prepared and used when necessary. The device used for measuring activity was SpectraMax of MOLECULAR DEVICES.
CYP4A bactosome and the compounds to be evaluated (5 μM) were each diluted in assay buffer (100 mM KPO4, 0.1% BSA, 1 mM DTT) and mixed in a 384 well plate (white opaque polystyrene nontreated flat-bottom well), and reaction was carried out at room temperature for 15 minutes. To induce CYP4A reaction, 5 mM Luciferin-ME, NADPH Regeneration system (10× sol. A, 20× sol. B in assay buffer, Cat. Number: V865B, Promega) were sequentially added and mixed, and the reaction was carried out at room temperature for 30 minutes. Then, Luciferin Detection reagent was added thereto and reacted at room temperature for 15 minutes to stop the CYP4A reaction and induce a luminescence reaction. Finally, after measuring the luminescence value using a microplate reader, the inhibition of CYP4A activity by the compounds was evaluated by comparing the luminescence value from each well.
As for `CC(=O)Nc1ccc(S(=O)(=O)N2CCCC(C(=O)N3CCN(c4nc(C)nc5ccccc45)CC3)C2)cc1` (stereo not shown) [Example 79, N-(4-(3-(1-(2-methylquinazolin-4-yl)piperazine-4-carbonyl)piperidin-1-ylsulfonyl)phenyl)acetamide], the inhibition at 5 µM was 50 to 70%. With `Cc1cc(N2CCN(C(=O)C3CCCN(S(=O)(=O)c4cccs4)C3)CC2)c2ccccc2n1` (stereo not shown) [Example 127, (4-(2-methylquinolin-4-yl)piperazin-1-yl)(1-(thiophen-2-ylsulfonyl)piperidin-3-yl)methanone], the inhibition at 5 µM lay within 50 to 70%.

The same assay, now with this note: Compound concentration 5 μM; 70%-90%; read-out: % Inhibition 70%-90%.
On to `CC(=O)Nc1ccc(S(=O)(=O)N2CCCC(C(=O)N3CCN(c4ncnc5ccccc45)CC3)C2)cc1` (stereo not shown) [Example 74, N-(4-((3-(4-(quinazolin-4-yl)piperazine-1-carbonyl)piperidin-1-yl)sulfonyl)phenyl)acetamide], for which the inhibition at 5 µM fell in the range of 70 to 90%.

As for `COc1ccc(C(=O)N2CCCC(C(=O)N3CCN(c4ccnc5cc(F)ccc45)CC3)C2)cc1` (stereo not shown) [Example 110, (4-(7-fluoroquinolin-4-yl)piperazin-1-yl)(1-(4-methoxybenzoyl)piperidin-3-yl)methanone], the inhibition at 5 µM was in the range of 70 to 90%. As to `O=C(c1ccc(F)cc1)N1CCCC(C(=O)N2CCN(c3ccnc4cc(F)ccc34)CC2)C1` (stereo not shown) [Example 106, (1-(4-fluorobenzoyl)piperidin-3-yl)(4-(7-fluoroquinolin-4-yl)piperazin-1-yl)methanone], the inhibition at 5 µM lay within 70 to 90%. On the same count and under the same terms, for `COc1ccc2c(N3CCN(C(=O)C4CCCN(C(=O)c5ccc(NC(C)=O)cc5)C4)CC3)ccnc2c1` (stereo not shown) [Example 89, N-(4-(3-(4-(7-methoxyquinolin-4-yl)piperazine-1-carbonyl)piperidine-1-carbonyl)phenyl)acetamide] the value was 70 to 90%; for `O=C(C1CCN(S(=O)(=O)c2ccc(Br)cc2)C1)N1CCN(c2ccnc3cc(F)ccc23)CC1` (stereo not shown) [Example 16, (1-((4-bromophenyl)sulfonyl)pyrrolidin-3-yl)(4-(7-fluoroquinolin-4-yl)piperazin-1-yl)methanone], 70 to 90%.

Staying with this assay, now noted: Compound concentration 5 μM; Greater than 90%; read-out: % Inhibition Greater than 90%.
In the case of `O=C(C1CCN(S(=O)(=O)c2ccc(-c3ccc(O)nc3)cc2)C1)N1CCN(c2ccnc3ccccc23)CC1` (stereo not shown) [Example 34, (1-((4-(6-hydroxypyridin-3-yl)phenyl)sulfonyl)pyrrolidin-3-yl)(4-(quinolin-4-yl)piperazin-1-yl)methanone], the inhibition at 5 µM was over 90%. `O=C([C@H]1CCN(S(=O)(=O)c2ncn[nH]2)C1)N1CCN(c2ccnc3ccc(F)cc23)CC1` [Example 136, (S)-(1-((1H-1,2,4-triazol-5-yl)sulfonyl)pyrrolidin-3-yl)(4-(6-fluoroquinolin-4-yl)piperazin-1-yl)methanone]: the inhibition at 5 µM is over 90%. With `O=C(C1CCN(S(=O)(=O)c2ccc([N+](=O)[O-])cc2)C1)N1CCN(c2ccnc3cc(F)ccc23)CC1` (stereo not shown) [Example 8, (4-(7-fluoroquinolin-4-yl)piperazin-1-yl)(1-((4-nitrophenyl)sulfonyl)pyrrolidin-3-yl)methanone], the inhibition at 5 µM is over 90%. As to `O=C([C@H]1CCN(S(=O)(=O)c2ncn(CCO)n2)C1)N1CCN(c2ccnc3cc(F)ccc23)CC1` [Example 140, (S)-(4-(7-fluoroquinolin-4-yl)piperazin-1-yl)(1-((1-(2-hydroxyethyl)-1H-1,2,4-triazol-3-yl)sulfonyl)pyrrolidin-3-yl)methanone], the inhibition at 5 µM is over 90%. Turning to `Cc1noc(C)c1S(=O)(=O)N1CCC(C(=O)N2CCN(c3ccnc4ccccc34)CC2)C1` (stereo not shown) [Example 39, (1-((3,5-dimethylisoxazol-4-yl)sulfonyl)pyrrolidin-3-yl)(4-(quinolin-4-yl)piperazin-1-yl)methanone], the inhibition at 5 µM is over 90%. On the same count and under the same terms, for `Cn1cnc(S(=O)(=O)N2CCC(C(=O)N3CCN(c4ccnc5ccccc45)CC3)C2)c1` (stereo not shown) [Example 46, (1-((1-methyl-1H-imidazol-4-yl)sulfonyl)pyrrolidin-3-yl)(4-(quinolin-4-yl)piperazin-1-yl)methanone] the value was over 90%.

What is called inhibition is how much of the control response was suppressed.
